Values of other authors in patent publication US20230301938A1 (priority 2022, published 2023).
Read-outs that look alike come from different tables or passages of the source.

Experiments:
[1] = system: Nrf2 (+/+) primary peritoneal macrophages
[2] = system: LPS-challenged macrophages; conditions: pre-incubated 6 h, 0 to 50 µM, then LPS 24 h
[3] = system: Nrf2 (-/-) primary peritoneal macrophages
[4] = system: lipopolysaccharide-induced inflammatory reactions
sepsis = conditions: for concentration of IL-1α: controls 1187.0 ± 278.64
[5] = system: human umbilical vein VECs (HUVECs)
[6] = system: endothelium of atherosclerotic plaque; conditions: apoE(-/-) mice, injection
[7] = system: lipopolysaccharide-activated macrophages
myocardial ischemia = conditions: 10 mg/kg intravenously then 10 mg/kg/h
[8] = 50 and 100 mg/kg/day, vs MD group

Which “inducible nitric oxide synthase (iNOS) activity” value (LPS-induced ARDS; 50 mg/kg) does the source give for `C[S+]([O-])CCCCN=C=S` (stereo not drawn) [sulforaphane, 1-isothiocyanato-4-(methylsulfinyl)-butane] here?
The value was “significantly inhibited”.

And the “nuclear factor-κB protein expression” value (LPS-induced ARDS; 50 mg/kg)?
The value was “significantly decreased”.

What about the “prostaglandin E2 (PGE2) production” value (LPS-induced ARDS; 50 mg/kg) of the same compound?
The value was “significantly inhibited”.

What about the “serum levels of interleukin-6 (IL-6)” value (LPS-induced ARDS; 50 mg/kg, ELISA) of the same compound?
The value was “significantly decreased”.

What about the “serum levels of tumor necrosis factor-α (TNF-α)” value (LPS-induced ARDS; 50 mg/kg, ELISA) of the same compound?
The value was “significantly decreased”.

And the “lactate dehydrogenase (LDH) activity” value (LPS-induced ARDS; 50 mg/kg, LPS 5 mg/kg)?
The value was “significantly decreased”.

And the “wet-to-dry ratio of the lungs” value (LPS-induced ARDS; 50 mg/kg, LPS 5 mg/kg)?
Its value is “significantly decreased”.

And the “Nrf2/antioxidant response element (ARE) pathway” value (LPS-induced ARDS; pre-treatment)?
The value was “activated”.

And the “cyclooxygenase-2 (COX-2) protein expression” value (LPS-induced ARDS; western blot)?
The value was “significantly inhibited”.

What about the “matrix metalloproteinase-9 (MMP-9) protein expression” value (LPS-induced ARDS; western blot) of the same compound?
Its value is “significantly inhibited”.

What about the HO-1 expression ([1]; LPS-stimulated) of the same compound?
Its HO-1 expression is “significantly augmented”.

And the “LPS-stimulated mRNA expression, protein expression and production of TNF-alpha, IL-1beta, COX-2 and iNOS” value ([1]; pretreatment)?
Its value is “potently inhibited”.

And the “expression of NO and cytokines” value [2]?
Its value is “able to prevent”.

What about the anti-inflammatory effect [3] of the same compound?
Its anti-inflammatory effect is “attenuated”.

With `CC1=CC(=O)C(C(C)C)=CC1=O` [thymoquinone] as the compound, how does the lipopolysaccharide-induced inflammatory reactions [4] read?
The lipopolysaccharide-induced inflammatory reactions was “suppressed effectively”.

And the “concentration of nitric oxide” value ([4]; marker of inflammation)?
The value was “reduced significantly”.

What about the “concentration of IL-1α” value (sepsis; 0.75 mg/kg dose) of the same compound?
Its value is 310.8 ± 70.93 pg/mL.

And the IL-10 levels (sepsis; 0.75 mg/kg, controls 5505.2 ± 333.96)?
The IL-10 levels was 2885.0 ± 553.98 pg/mL.

And the “concentration of IL-1α” value (sepsis; 1 mg/kg group)?
The value was 428.3 ± 71.32 pg/mL.

What about the “levels of IL-2” value (sepsis; P=0.0851) of the same compound?
Its value is “relatively lower levels”.

What about the “levels of TNF-α” value (sepsis; P=0.1817) of the same compound?
Its value is “relatively lower levels”.

And the reduction of mortality (sepsis; mice, sepsis)?
Its reduction of mortality is 80-90%.

What about the “renal and hepatic biomarker profiles” value (sepsis; mice, sepsis) of the same compound?
The value was “improved”.

For “trans-3,5-dimethoxy-4-hydroxystilbene [pterostilbene]”, which “oxLDL-induced cell shrinkage, chromatin condensation, nuclear fragmentation, and cell apoptosis” value ([5]; HUVECs, oxLDL 200 µg/ml) is on record?
The value was “protected against such injuries”.

And the “expression of lectin-like oxLDL receptor-1 (LOX-1)” value ([5]; in vitro and in vivo)?
The value was “inhibited”.

And the “number of TUNEL-positive cells in the endothelium of atherosclerotic plaque” value [6]?
Its value is “strongly decreased”.

What does the source list for `O=C(O[C@@H]1Cc2c(O)cc(O)cc2O[C@@H]1c1cc(O)c(O)c(O)c1)c1cc(O)c(O)c(O)c1` [EGCG]?
NO production ([7]; cotreated with LPS): Inhibition; activation of nuclear factor-kappaB ([7]; electrophoretic mobility shift assay): blocked; disease activity index (DAI) (ulcerative colitis (UC); [8]): decreased; spleen index (SI) (ulcerative colitis (UC); [8]): decreased; HIF-1α protein expression in the colon (ulcerative colitis (UC); mouse, in vivo): decreasing; STAT3 protein expression in the colon (ulcerative colitis (UC); mouse, in vivo): decreasing; plasma levels of IL-10 (ulcerative colitis (UC); mouse, in vivo): increasing; plasma levels of TGF-β1 (ulcerative colitis (UC); mouse, in vivo): increasing; release of IL-6 (ulcerative colitis (UC); plasma): reduce; release of IL-17 (ulcerative colitis (UC); plasma): reduce; myeloperoxidase activity (myocardial ischemia): reduced; myocardial damage (myocardial ischemia): reduced; plasma IL-6 levels (myocardial ischemia): decreased; plasma creatine phosphokinase levels (myocardial ischemia): decreased; TNF-α-induced nuclear factor-κB (NF-κB) activity (macrophage foam cells): inhibition; TNF-α-induced downregulation of ABCA1 and decrease in cholesterol efflux to apoA1 (macrophage foam cells; pretreatment): attenuated
